Measurements: patent publication US11407768B2, “AMPK activators” (Kallyope, Inc., priority 2020, dated 2022)
Each block holds one compound with its values, some of them ahead of it.

Assays:
[1] = biological target: Recombinant AMPK α1/β1/γ1 complex (Homo sapiens (Human), UniProt Q13131+Q9Y478); experiment: In vitro pAMPK1 kinase activation assay (ADP-Glo, SAMS peptide); type: biochemical; details: AMPK α1/β1/γ1 pre-activated with CAMKK2; 12-point curve; 15 min compound incubation
Method: Compound effect on AMPK enzyme activation was determined in a cell-free format with a 12-point concentration curve. The ADP-Glo detection system was used to determine phosphorylation of a SAMS peptide substrate. Recombinant AMPK α1/β1/γ1 complex was pre-activated by phosphorylation with CAMKK2 followed by incubated with compound for 15 minutes prior to the SAMS phosphorylation reaction. Activity curves and EC50 values were fitted by interpolation to an ATP:ADP standard curve as indicated by the ADP-Glo manufacturer using Prism software.

[2] = system: Chemotherapy-induced Intestinal Injury Model; experiment: Diarrhea in mouse chemotherapy-induced (5FU) intestinal injury model; type: in vivo, BALB/c mice; details: 30 mpk BID oral, 5FU 400 mg/kg IP; for Diarrhea Score Day 5 / Diarrhea Score Day 6: score 0-3
Method: Compounds were formulated in vehicle (0.25% methyl cellulose, 5% Tween 80, 0.02% sodium dodecyl sulfate (SDS) in Hanks' Buffered Salt Solution with Ca' and Mg'). On day 1, either saline or a 400 mg/kg dose of 5-fluorouracil (5FU) in saline was administered by intraperitoneal injection to BALB/c mice. Starting on day 2, vehicle or compound was administered twice a day by oral gavage. From days 5 to 6 post-5FU, the animals were scored for diarrhea severity once a day. The diarrhea was scored 0-3 as follows: 0—normal consistency (black and solid), 1—soft (black and a bit lighter/yellow), 2—loosely shaped stool (yellowish and somewhat watery), 3—extreme diarrhea (very watery).

[3] = Pharmacokinetics (oral bioavailability) in C57BL/6 mice; details: mouse, in vivo; for bioavailability: IV 1 mg/kg, PO 30 mg/kg; for Vd: following IV administration, 1 mg/kg, read-out: volume of distribution
Method: Selected compounds were tested for pharmacokinetics in C57BL/6 mice. Compounds 1, 4, 31, 32, 40, 55, 57 and 60 were dosed IV at 1 mg/kg as a formulation of 0.2 mg/mL in 5% DMSO+30% PEG400+65% water and were dosed PO at 30 mg/kg as a formulation of 3 mg/mL in 0.25% MC+5% Tween 80+0.02% SDS. Compound 2 was dosed IV at 1 mg/kg as a formulation of 0.2 mg/mL in 5% ethanol +95% saline and was dosed PO at 30 mg/kg as a formulation of 3 mg/mL in 0.25% MC+5% Tween 80+0.02% SDS.

in vitro = details: human
Method: Caco-2 cells purchased from ATCC were seeded onto […] (PET) in 96-well BD Insert plates at 1×10^5 cells/cm^2, and refreshed medium every 4-5 days until to the 21st to 28th day for confluent cell monolayer formation. The transport buffer in the study was HBSS with 10 mM HEPES at pH 7.40±0.05. Test compounds were tested at 2 μM bi-directionally in duplicate. Digoxin was tested at 10 μM bi-directionally in duplicate, while nadolol and metoprolol were tested at 2 μM in A to B direction in duplicate. Final DMSO concentration was adjusted to less than 1%.
The plate was incubated for 2 hours in CO2 incubator at 37±1° C., with 5% CO2 at saturated humidity without shaking. All samples were mixed with acetonitrile containing internal standard and were centrifuged at 4000 rpm for 10 min. Subsequently, 100 μL supernatant solution was diluted with 100 μL distilled water for LC/MS/MS analysis. Concentrations of test and control compounds in starting solution, donor solution, and receiver solution were quantified by LC/MS/MS, using peak area ratio of analyte/internal standard.

[4] = Caco-2, pH 7.4, Mean Recovery A to B

Recombinant AMPK α1/β1/γ1 complex, sequence (Q13131 whole entry): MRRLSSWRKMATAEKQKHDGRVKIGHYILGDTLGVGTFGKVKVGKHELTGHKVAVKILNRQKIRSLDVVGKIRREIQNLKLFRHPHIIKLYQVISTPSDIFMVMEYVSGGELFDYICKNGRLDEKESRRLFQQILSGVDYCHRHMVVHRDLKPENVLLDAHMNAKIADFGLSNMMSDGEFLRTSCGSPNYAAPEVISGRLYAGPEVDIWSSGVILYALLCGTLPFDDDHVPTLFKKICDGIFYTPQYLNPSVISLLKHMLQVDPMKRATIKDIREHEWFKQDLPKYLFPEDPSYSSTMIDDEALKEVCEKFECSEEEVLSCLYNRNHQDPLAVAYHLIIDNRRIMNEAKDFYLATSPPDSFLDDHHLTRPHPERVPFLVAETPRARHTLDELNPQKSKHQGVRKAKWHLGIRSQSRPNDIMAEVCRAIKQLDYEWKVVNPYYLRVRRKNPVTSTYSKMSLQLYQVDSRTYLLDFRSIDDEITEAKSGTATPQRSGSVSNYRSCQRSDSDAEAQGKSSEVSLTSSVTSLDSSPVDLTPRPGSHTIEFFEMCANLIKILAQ
Recombinant AMPK α1/β1/γ1 complex, sequence (Q9Y478 whole entry): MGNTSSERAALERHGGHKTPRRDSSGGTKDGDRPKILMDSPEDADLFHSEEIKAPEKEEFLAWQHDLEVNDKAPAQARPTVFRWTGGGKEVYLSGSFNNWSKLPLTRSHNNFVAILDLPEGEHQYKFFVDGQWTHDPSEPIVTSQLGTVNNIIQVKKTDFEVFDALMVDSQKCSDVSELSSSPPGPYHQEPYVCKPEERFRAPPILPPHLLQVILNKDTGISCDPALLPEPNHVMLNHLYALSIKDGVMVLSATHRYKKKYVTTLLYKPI
Recombinant AMPK α1/β1/γ1 complex, sequence (P54619 whole entry partner): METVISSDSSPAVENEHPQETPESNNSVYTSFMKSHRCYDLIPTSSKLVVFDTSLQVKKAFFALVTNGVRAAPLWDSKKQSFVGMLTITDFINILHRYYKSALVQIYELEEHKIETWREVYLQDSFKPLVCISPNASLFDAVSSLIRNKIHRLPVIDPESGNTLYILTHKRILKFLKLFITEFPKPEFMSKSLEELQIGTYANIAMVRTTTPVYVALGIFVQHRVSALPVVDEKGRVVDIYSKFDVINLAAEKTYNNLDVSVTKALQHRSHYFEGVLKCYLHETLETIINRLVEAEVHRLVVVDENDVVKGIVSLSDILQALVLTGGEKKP

EC50 [1]: 0.93 nM
SMILES: OCCN1CCN(Cc2ccc(-c3ccc(-c4cc5nc(O[C@@H]6CO[C@H]7[C@@H]6OC[C@H]7O)[nH]c5cc4Cl)cc3)cc2)CC1 [Compound 56]
Diarrhea Score Day 5, % Change vs. Vehicle [2]: −71% | Diarrhea Score Day 6, % Change vs. Vehicle [2]: −77% | Diarrhea Score Day 5 [2]: 0.38 | Diarrhea Score Day 6 [2]: 0.25

EC50 [1]: 0.93 nM
SMILES: OCCOCCNCc1ccc(-c2ccc(-c3cc4nc(O[C@@H]5CO[C@H]6[C@@H]5OC[C@H]6O)[nH]c4cc3Cl)cc2)cc1 [Compound 58, (3R,3aR,6R,6aR)-6-((6-chloro-5-(4′-(((2-(2-hydroxyethoxy)ethyl)amino)methyl)-[1,1′-biphenyl]-4-yl)-1H-benzo[d]imidazol-2-yl)oxy)hexahydrofuro[3,2-b]furan-3-ol]
Diarrhea Score Day 5, % Change vs. Vehicle [2]: −81% | Diarrhea Score Day 6, % Change vs. Vehicle [2]: −66% | Diarrhea Score Day 5 [2]: 0.25 | Diarrhea Score Day 6 [2]: 0.38

EC50 [1]: 0.65 nM
SMILES: O=C(NC[C@H](O)[C@@H](O)[C@H](O)[C@H](O)CO)c1ccc(-c2ccc(-c3cc4nc(O[C@@H]5CO[C@H]6[C@@H]5OC[C@H]6O)[nH]c4cc3Cl)cc2)cc1 [Compound 30, 4′-(6-chloro-2-(((3R,3aR,6R,6aR)-6-hydroxyhexahydrofuro[3,2-b]furan-3-yl)oxy)-1H-benzo[d]imidazol-5-yl)-N-((2S,3R,4R,5R)-2,3,4,5,6-pentahydroxyhexyl)-[1,1′-biphenyl]-4-carboxamide]

bioavailability [3]: < 10% | Vd [3]: < 5 L/kg | EC50 [1]: 0.89 nM
SMILES: CN1CCN(Cc2ccc(-c3ccc(-c4cc5nc(O[C@@H]6CO[C@H]7[C@@H]6OC[C@H]7O)[nH]c5cc4Cl)cc3)cc2)CC1 [Compound 57, (3R,3aR,6R,6aR)-6-((6-chloro-5-(4′-((4-methylpiperazin-1-yl)methyl)-[1,1′-biphenyl]-4-yl)-1H-benzo[d]imidazol-2-yl)oxy)hexahydrofuro[3,2-b]furan-3-ol]

EC50 [1]: 0.84 nM
SMILES: OCC(CO)(CO)NCc1ccc(-c2ccc(-c3cc4nc(O[C@@H]5CO[C@H]6[C@@H]5OC[C@H]6O)[nH]c4cc3Cl)cc2)cc1 [Compound 36, 2-(((4′-(6-chloro-2-(((3R,3aR,6R,6aR)-6-hydroxyhexahydrofuro[3,2-b]furan-3-yl)oxy)-1H-benzo[d]imidazol-5-yl)-[1,1′-biphenyl]-4-yl)methyl)amino)-2-(hydroxymethyl)propane-1,3-diol]

EC50 [1]: 0.63 nM
SMILES: O=S(=O)(NC[C@H](O)[C@@H](O)[C@H](O)[C@H](O)CO)c1ccc(-c2ccc(-c3cc4nc(O[C@@H]5CO[C@H]6[C@@H]5OC[C@H]6O)[nH]c4cc3Cl)cc2)cc1 [Compound 71]

EC50 [1]: 1.36 nM
SMILES: O[C@@H]1CO[C@H]2[C@@H]1OC[C@H]2Oc1nc2cc(-c3ccc(-c4ccc(CN5C[C@@H](O)[C@@H](O)C5)cc4)cc3)c(Cl)cc2[nH]1 [Compound 61, (3S,4R)-1-((4′-(6-chloro-2-(((3R,3aR,6R,6aR)-6-hydroxyhexahydrofuro[3,2-b]furan-3-yl)oxy)-1H-benzo[d]imidazol-5-yl)-[1,1′-biphenyl]-4-yl)methyl)pyrrolidine-3,4-diol]

EC50 [1]: 0.8 nM
SMILES: OCC1(CO)CN(Cc2ccc(-c3ccc(-c4cc5nc(O[C@@H]6CO[C@H]7[C@@H]6OC[C@H]7O)[nH]c5cc4Cl)cc3)cc2)C1 [Compound 66, (1-((4′-(6-chloro-2-(((3R,3aR,6R,6aR)-6-hydroxyhexahydrofuro[3,2-b]furan-3-yl)oxy)-1H-benzo[d]imidazol-5-yl)-[1,1′-biphenyl]-4-yl)methyl)azetidine-3,3-diyl)dimethanol]

EC50 [1]: 0.77 nM
SMILES: OC[C@@H](O)[C@@H](O)[C@H](O)[C@@H](O)CNCc1ccc(-c2ccc(-c3cc4nc(O[C@@H]5CO[C@H]6[C@@H]5OC[C@H]6O)[nH]c4cc3Cl)cc2)cc1 [Compound 65, (2R,3R,4R,5S)-6-(((4′-(6-chloro-2-(((3R,3aR,6R,6aR)-6-hydroxyhexahydrofuro[3,2-b]furan-3-yl)oxy)-1H-benzo [d]imidazol-5-yl)-[1,1′-biphenyl]-4-yl)methyl)amino)hexane-1,2,3,4,5-pentaol]

More lines, now with the values behind:

SMILES: COCCc1ccc(OCC(O)CNC(C)C)cc1 (stereo not shown) [Metoprolol, metoprolol, reference compound]
Papp A→B at 2 h, 2 μM (in vitro; Caco-2, pH 7.4): 16.4 ×10⁻⁶ cm/s | recovery at 2 h, 2 μM (in vitro; [4]): 90%

SMILES: CC(NC[C@H](O)[C@@H](O)[C@H](O)[C@H](O)CO)c1ccc(-c2ccc(-c3nc4nc(O[C@@H]5CO[C@H]6[C@@H]5OC[C@H]6O)[nH]c4cc3Cl)cc2)cc1 (stereo partly shown) [Compound 73]
EC50 [1]: 1.33 nM

SMILES: CN(CCOCCO)Cc1ccc(-c2ccc(-c3cc4nc(O[C@@H]5CO[C@H]6[C@@H]5OC[C@H]6O)[nH]c4cc3Cl)cc2)cc1 [Compound 62, (3R,3aR,6R,6aR)-6-((6-chloro-5-(4′-(((2-(2-hydroxyethoxy)ethyl)(methyl)amino)methyl)-[1,1′-biphenyl]-4-yl)-1H-benzoldlimidazol-2-yl)oxy)hexahydrofuro[3,2-b]furan-3-ol]
EC50 [1]: 1.3 nM

SMILES: OCC1CCN(Cc2ccc(-c3ccc(-c4cc5nc(O[C@@H]6CO[C@H]7[C@@H]6OC[C@H]7O)[nH]c5cc4Cl)cc3)cc2)CC1 [Compound 55, (3R,3aR,6R,6aR)-6-((6-chloro-5-(4′((4-(hydroxymethyl)piperidin-1-yl)methyl)-[1,1′-biphenyl]-4-yl)-1H-benzo[d]imidazol-2-yl)oxy)hexahydrofuro[3,2-b]furan-3-ol]
bioavailability [3]: < 15% | Vd [3]: < 5 L/kg | EC50 [1]: 2.22 nM

SMILES: C[C@H]1O[C@@H](O[C@H]2[C@@H](O)C[C@H](O[C@H]3[C@@H](O)C[C@H](O[C@H]4CC[C@@]5(C)[C@H](CC[C@@H]6[C@@H]5C[C@@H](O)[C@]5(C)[C@@H](C7=CC(=O)OC7)CC[C@]65O)C4)O[C@@H]3C)O[C@@H]2C)C[C@H](O)[C@@H]1O [Digoxin, reference compound]
Papp A→B at 2 h, 2 μM (in vitro; Caco-2, pH 7.4): < 0.03 ×10⁻⁶ cm/s | Papp B→A at 2 h, 2 μM (in vitro; Caco-2, pH 7.4): 12.7 ×10⁻⁶ cm/s | efflux ratio at 2 h, 2 μM (in vitro; Caco-2, pH 7.4, Efflux Ratio): > 438 | recovery at 2 h, 2 μM (in vitro; [4]): < 90.8% | recovery at 2 h, 2 μM (in vitro; Caco-2, pH 7.4, Mean Recovery B to A): 92.2%

SMILES: OCC1(CO)CN(Cc2ccc(-c3ccc(-c4nc5nc(O[C@@H]6CO[C@H]7[C@@H]6OC[C@H]7O)[nH]c5cc4Cl)cc3)cc2)C1 [Compound 52, (1-((4′-(6-chloro-2-(((3R,3aR,6R,6aR)-6-hydroxyhexahydrofuro[3,2-b]furan-3-yl)oxy)-1H-imidazo[4,5-b]pyridin-5-yl)-[1,1′-biphenyl]-4-yl)methyl)azetidine-3,3-diyl)dimethanol]
EC50 [1]: 0.81 nM

SMILES: C[N+](C)(C)CCNC(=O)c1ccc(-c2ccc(-c3cc4nc(O[C@@H]5CO[C@H]6[C@@H]5OC[C@H]6O)[nH]c4cc3Cl)cc2)cc1 [Compound 29, 2-(4′-(6-chloro-2-(((3R,3aR,6R,6aR)-6-hydroxyhexahydrofuro[3,2-b]furan-3-yl)oxy)-1H-benzo [d]imidazol-5-yl)-[1,1′-biphenyl]-4-carboxamido)-N,N,N-trimethylethan-1-aminium bicarbonate]
EC50 [1]: 0.56 nM

SMILES: O=C(NCCCP(=O)(O)O)c1ccc(-c2ccc(-c3nc4nc(O[C@@H]5CO[C@H]6[C@@H]5OC[C@H]6O)[nH]c4cc3Cl)cc2)cc1 [Compound 14, (3-(4′-(6-chloro-2-(((3R,3aR,6R,6aR)-6-hydroxyhexahydrofuro[3,2-b]furan-3-yl)oxy)-1H-imidazo[4,5-b]pyridin-5-yl)-[1,1′-biphenyl]-4-carboxamido)propyl)phosphonic acid]
EC50 [1]: 0.5 nM
